Target: T1, VmFbpA (ferric ion-binding protein A) (Vibrio metschnikovii, UniProt A0A9X0R8I3)
T1 construct: gene H8Q88_11990; WP_004394209.1 without the signal peptide '[…]'; 6× His-tag-free apo VmFbpA
Test: ITC of RA into apo VmFbpA (single-site model); supported by UV-vis peak shift and Fe3+ pull-down inhibition by ICP-MS (IC50 […])

T1 sequence (A0A9X0R8I3 entry or part of it): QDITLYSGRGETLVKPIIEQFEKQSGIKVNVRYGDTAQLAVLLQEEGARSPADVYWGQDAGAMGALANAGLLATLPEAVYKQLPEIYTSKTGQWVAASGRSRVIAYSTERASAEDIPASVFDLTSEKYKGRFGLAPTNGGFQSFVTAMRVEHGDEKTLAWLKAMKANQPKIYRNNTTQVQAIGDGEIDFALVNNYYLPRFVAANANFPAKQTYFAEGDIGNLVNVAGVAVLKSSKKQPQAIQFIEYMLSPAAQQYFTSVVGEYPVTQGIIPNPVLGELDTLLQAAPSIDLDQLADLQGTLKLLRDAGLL

Q: O=C(/C=C/c1ccc(O)c(O)c1)O[C@H](Cc1ccc(O)c(O)c1)C(=O)O [RA, rosmarinic acid] was tested. Which Kd did it give?
A: The Kd was 8 ± 1 µM.
